“And” between values parts separate entries of the source, which are not always exact repeats. Equal values may be shown once. Read-outs that look alike come from different tables or passages of the source.
Columns and labels:
[1] = Octanol/water partition coefficient (Kow), shared-headspace method; format: physicochemical; conditions: 25 °C; shared-headspace method (SH)
Description: Kow was measured for nine PFAS (Table 2) to supplement the data set for descriptor determination. The nine PFAS were selected based on measurement feasibility and structural diversity. The shared-headspace or batch partition method was used as described previously.[5] Details of the methods are given in SI-1.

[2] = PP-LFER solute descriptor determination from GC retention and partition coefficient data; format: physicochemical; conditions: for Solute descriptor S (dipolarity/polarizability parameter): final adjusted value, shared within a PFAS group
Description: The GC columns used were, from low to high polarity, HP-5ms Ultra Inert (poly[5% phenyl/95% methyl]siloxane equivalent; Agilent Technologies, Santa Clara, CA), DB-200 (poly[35% trifluoropropyl/65% methyl]siloxane; Agilent Technologies), DB-225ms (poly[50% cyanopropylphenyl/50% methyl]siloxane equivalent; Agilent Technologies), and SolGel-WAX (polyethylene glycol; Trajan, Ringwood, Australia). Column dimensions were all 30 m × 0.25 mm i.d. with a coating thickness of 0.25 μm.
The method for GC retention time measurements follows that of a previous study.[18] Briefly, a 7890A/5975C GC/MS instrument (Agilent Technologies) equipped with an MPS2 autosampler and CIS4 injector (Gerstel, Mülheim an der Ruhr, Germany) was used for all measurements. For each column, isothermal retention times were measured at four temperatures in the range of 30–120 °C to cover all target compounds. The temperature at the injector and transfer line was fixed at 120 °C. The carrier gas was He at a flow rate of 1.2 mL/min. Compounds were introduced into the GC by injecting either headspace (100–250 μL) above the pure compound or solution in acetone (1 μL). Split injections were performed with a split ratio of 20–250. Column dead time (t0) was determined by injecting air and measuring Ar (m/z 40). From the measured retention time (t), the retention factor (k) was calculated as k = (t–t0)/t0. Measurements with t < t0 + 0.1 min were considered too short and discarded. For each column and temperature, k values were obtained for 29–52 PFAS and 29–48 reference compounds.
The standard procedure for solute descriptor determination was as follows. First, the system parameters in eq 1 were calibrated for each column (or partition system) and temperature by MLR using log k (or log K) data and solute descriptors for reference compounds. Dimethylformamide, 1-pentylamine, dimethylsulfoxide, and dodecamethylcyclohexasiloxane (D6) were removed from the log k data sets, because they frequently appeared as outliers (>3 SD) of the PP-LFER model fit. Reference data sets for hexadecane/water partition coefficients (KHxd/w),[21]Kow,[22] and octanol/air partition coefficients (Koa)[23] were taken from the cited references and amended with data for organosilicon compounds.[24],[25] Similar to PFAS, organosilicon compounds have weak van der Waals interaction properties[9] and it may be beneficial to include them in reference data sets. The solute descriptors for PFAS were then back-calculated by using the calibrated PP-LFER equations. Of the five descriptors, V can be calculated from the molecular structure[26] (note: the fragment value for F from Goss et al.[11] was used), and L was available for the PFAS studied.[18] Thus, the left side of eq 2 was known, and MLR was performed to obtain S, A, and B on the right side. [drawing 2] 2 To determine the three descriptors, a minimum of three k and K data are required for a given PFAS compound. The data used here were: k measured for 60 PFAS in this study, KHxd/w for 21 PFAS,[5]Kow for 12 PFAS (see the Results and Discussion section), and Koa for 3 PFAS.[11]
Key to the accurate determination of the polar interaction descriptors is the availability of K data for partition systems with water as a partition phase because water is a strong H-bond donor and acceptor phase and thus the corresponding K values are sensitive to the H-bonding properties of the solute.[27] In particular, at least one solvent/water or air/water partition coefficient is required to determine B because there is no commonly used GC phase that is a significant H-bond donor. In the data set, KHxd/w is sensitive to both A and B and Kow is sensitive to B. However, KHxd/w and Kow data are not available for all PFAS. To increase the number of PFAS for which descriptors can be determined, the following assumptions were made. […]

[3] = 25 °C, updated in the iterative calculation

Compound | Measured Log Kow, Mean ± SD [1] | Solute descriptor L (logarithmic hexadecane/air partition coefficient, KHxd/air) [2, 3] | Solute descriptor S (dipolarity/polarizability parameter) [2] | Solute descriptor L (logarithmic hexadecane/air partition coefficient, KHxd/air) [2]
OCCCC(F)(F)C(F)(F)C(F)(F)F [3:3 FTOH, 4,4,5,5,6,6,6-Heptafluorohexan-1-ol] | 2.46 ± 0.00 | 2.710 | 0.53 | 
OCCCCC(F)(F)C(F)(F)C(F)(F)C(F)(F)F [4:4 FTOH, 5,5,6,6,7,7,8,8,8-Nonafluorooctan-1-ol] | 3.54 ± 0.00 | 3.499 | 0.52 | 
CC(O)C(F)(F)C(F)(F)C(F)(F)C(F)(F)C(F)(F)F (stereo not shown) [5:2s FTOH, 1H,1H,1H,2H-Perfluoroheptan-2-ol] | 3.80 ± 0.03 | 2.296 | 0.39 and 0.39 ± 0.02 | 
FC(F)(F)C(F)(F)C(F)(F)C(F)(F)C(F)(F)C(F)(F)CI [6:1 FTI, 1H,1H-Perfluoroheptyl iodide] | 5.57 ± 0.01 | 3.382 and 3.38 | 0.27 and 0.27 ± 0.02 | 
FC(F)C(F)(F)C(F)(F)C(F)(F)C(F)(F)C(F)(F)CI [6:1 FTI-7H, 1H,1H,7H-Perfluoroheptyl iodide] | 4.90 ± 0.01 | 3.887 and 3.89 | 0.63 and 0.63 ± 0.04 | 
FC(F)(F)C(F)(I)OC(F)(F)C(F)(F)C(F)(F)F (stereo not shown) [FE-E1-I, 1-(Heptafluoropropoxy)-1,2,2,2-tetrafluoro-1-iodoethane] |  | 1.937 | 0.06 | 
FC(OC(F)(F)C(F)(OC(F)(F)C(F)(OC(F)(F)C(F)(F)C(F)(F)F)C(F)(F)F)C(F)(F)F)C(F)(F)F (stereo not shown) [FE-E3, 1,1,1,2,2,3,3-Heptafluoro-3-[(1,1,1,2,3,3-hexafluoro-3-{[1,1,1,2,3,3-hexafluoro-3-(1,2,2,2-tetrafluoroethoxy)-2-propanyl]oxy}-2-propanyl)oxy]propane] |  |  | -0.33 | 1.899
FC(OC(F)(F)C(F)(OC(F)(F)C(F)(OC(F)(F)C(F)(OC(F)(F)C(F)(F)C(F)(F)F)C(F)(F)F)C(F)(F)F)C(F)(F)F)C(F)(F)F (stereo not shown) [FE-E4, 1,1,1,2,4,4,5,7,7,8,10,10,11,13,13,14,14,15,15 ,15-Eicosafluoro-5,8,11-tris(trifluoromethyl)-3,6,9,12-tetraoxapentadecane] |  |  | -0.55 | 2.542
FC(OC(F)(F)C(F)(OC(F)(F)C(F)(OC(F)(F)C(F)(OC(F)(F)C(F)(OC(F)(F)C(F)(F)C(F)(F)F)C(F)(F)F)C(F)(F)F)C(F)(F)F)C(F)(F)F)C(F)(F)F (stereo not shown) [FE-E5, 1,1,1,2,4,4,5,7,7,8,10,10,11,13,13,14,16,16,17 ,17,18,18,18-Tricosafluoro-5,8,11,14-tetrakis(trifluoromethyl)-3,6,9,12,15-pentaoxaoctadecane] |  |  | -0.81 | 3.128
CNS(=O)(=O)C(F)(F)C(F)(F)C(F)(F)C(F)(F)C(F)(F)C(F)(F)F [MeFHxSA, N-Methylperfluorohexanesulfonamide] |  | 4.135 | 0.88 | 
CNS(=O)(=O)C(F)(F)C(F)(F)C(F)(F)C(F)(F)C(F)(F)C(F)(F)C(F)(F)C(F)(F)F [MeFOSA, N-Methylperfluorooctanesulfonamide] |  | 4.703 | 0.88 | 
CN(CCO)S(=O)(=O)C(F)(F)C(F)(F)C(F)(F)C(F)(F)C(F)(F)C(F)(F)C(F)(F)C(F)(F)F [MeFOSE, N-Methylperfluorooctanesulfonamidoethanol] |  |  | 1.00 | 5.909
FC(F)(F)C(F)(F)C(F)(F)C(F)(F)I [PFBI, Perfluorobutyl iodide] |  | 1.939 | 0.07 | 
O=S(=O)(F)C(F)(F)C(F)(F)C(F)(F)C(F)(F)F [PFBSF, Perfluorobutanesulfonyl fluoride] |  | 1.278 | 0.16 | 
FC(F)(F)C(F)(F)C(F)(F)C(F)(F)C(F)(F)C(F)(F)C(F)(F)C(F)(F)C(F)(F)C(F)(F)I [PFDI, Perfluorodecyl iodide] |  |  | 0.07 | 3.623
FC(F)(F)C(F)(F)C(F)(F)C(F)(F)C(F)(F)C(F)(F)C(F)(F)C(F)(F)C(F)(F)C(F)(F)C(F)(F)C(F)(F)F [PFDoD, Perfluorododecane] |  |  | -0.19 | 2.362
FC(F)(F)C(F)(F)C(F)(F)C(F)(F)C(F)(F)C(F)(F)C(F)(F)I [PFHpI, Perfluoroheptyl iodide] |  | 2.792 | 0.07 | 
FC(F)(F)C(F)(F)C(F)(F)C(F)(F)C(F)(F)C(F)(F)I [PFHxI, Perfluorohexyl iodide] |  | 2.508 | 0.07 | 
NS(=O)(=O)C(F)(F)C(F)(F)C(F)(F)C(F)(F)C(F)(F)C(F)(F)F [PFHxSA, Perfluorohexanesulfonamide] |  | 4.189 | 0.96 | 
FC(F)(F)C(F)(F)C(F)(F)C(F)(F)C(F)(F)C(F)(F)C(F)(F)C(F)(F)C(F)(F)F [PFN, Perfluorononane] |  | 1.571 | -0.19 | 
FC(F)(F)C(F)(F)C(F)(F)C(F)(F)C(F)(F)C(F)(F)C(F)(F)C(F)(F)I [PFOI, Perfluorooctyl iodide] |  | 3.068 | 0.07 | 
NS(=O)(=O)C(F)(F)C(F)(F)C(F)(F)C(F)(F)C(F)(F)C(F)(F)C(F)(F)C(F)(F)F [PFOSA, Perfluorooctanesulfonamide] |  |  | 0.96 | 4.744
C=Cc1ccc(C(F)(F)C(F)(F)C(F)(F)C(F)(F)C(F)(F)C(F)(F)C(F)(F)C(F)(F)F)cc1 [PFOSt, 4-(Perfluorooct-1-yl)styrene] |  |  | 0.32 | 5.645
FC(F)(F)C(F)(F)C(F)(F)C(F)(F)N(C(F)(F)C(F)(F)C(F)(F)C(F)(F)F)C(F)(F)C(F)(F)C(F)(F)C(F)(F)F [PFTBA, Perfluorotributyl amine] |  | 2.302 | -0.23 | 
FC(F)(F)C(F)(F)C(F)(F)N(C(F)(F)C(F)(F)C(F)(F)F)C(F)(F)C(F)(F)C(F)(F)F [PFTPrA, Perfluorotripropyl amine] |  | 1.521 | -0.26 | 
